Results on 1 compound are retold here after ChEMBL document CHEMBL1201862, “PubChem BioAssay data set” (2004).

Holding throughout (test): NCI tumour cell line growth inhibition, 48 h
The test system of assay [1] is DLD-1.
For assay [2], the system named is DMS-114.
Assay [3] concerns EKVX.
Assay [4] relates to HCC 2998.
Assay [5] relates to HCT-116.
The subject of assay [6] is HCT-15.
For assay [7], the system named is IGROV-1.
In assay [8] the test system is K562.
Assay [9] relates to MCF7.
The subject of assay [10] is MDA-MB-231.
The subject of assay [11] is MDA-MB-435.
Assay [12] relates to MOLT-4.
Assay [13] deals with NCI-H226.
The subject of assay [14] is OVCAR-4.
In assay [15] the test system is OVCAR-8.
Assay [16] relates to SF-539.
In assay [17] the test system is SNB-75.
Assay [18] relates to T47D.
The subject of assay [19] is UACC-62.

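Five concentrations, 48 hours, 96-well plates. GI50 = concentration required for 50% inhibition of growth.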 Activity calls are given as the source filed them. Rule as the data show it: active = GI50 up to about 1.1 µM and inactive = higher.

In the case of `CCCC(=O)N[C@H]1CCc2cc(OC)c(OC)c(OC)c2-c2ccc(SC)c(=O)cc21`, the GI50 in [1] is < 10 nM (active); in assay [2] it was < 10 nM (active); in [3] it was 51900 nM (inactive); in [4], < 10 nM (active); in assay [5] it was < 10 nM (active); in [6], 10.9 nM. Further, the GI50 in assay [7], in assay [8], in assay [9], in assay [10], in [11] and in [12] was < 10 nM (active) throughout. For the same compound, the GI50 was < 46.5 nM (active) in [13]; 17100 nM (inactive) in assay [14]; < 10 nM (active) in assay [15]; < 10 nM (active) in assay [16]; < 10 nM (active) in assay [17]; > 100000 nM (inactive) in assay [18]. In addition, the GI50 in [19] was < 10 nM (active).
